Measured values taken from the supplement of paper PMC13380429.
± gives the standard deviation of the averaged measurements.

Tests used:
Conditions in all cases: 72 h
Caco-2 [1] = test: cell viability relative to DMSO; higher = less toxic
Calu-3 [2] = test: as above
HepG2 [3] = test: as above
U2OS [4] = test: as above
Vero E6 [5] = test: as above
Caco-2 [6] = test: relative viability EC50 (midpoint between 100% and the lowest measured viability); higher = less toxic
Calu-3 [7] = test: as above
HepG2 [8] = test: as above
U2OS [9] = test: as above
Vero E6 [10] = test: as above
Caco-2 [11] = test: drug sensitivity score (DSS) for viability; higher = more toxic; extreme values may be limits of the assay
Calu-3 [12] = test: as above
HepG2 [13] = test: as above
U2OS [14] = test: as above
Vero E6 [15] = test: as above

Row | Structure (SMILES) | cell viability (Caco-2 [1]; 1 nM) | cell viability (Caco-2 [1]; 10 nM) | cell viability (Caco-2 [1]; 100 nM) | cell viability (Caco-2 [1]; 1000 nM) | cell viability (Caco-2 [1]; 10000 nM) | cell viability (Calu-3 [2]; 1 nM) | cell viability (Calu-3 [2]; 10 nM) | cell viability (Calu-3 [2]; 100 nM) | cell viability (Calu-3 [2]; 1000 nM) | cell viability (Calu-3 [2]; 10000 nM) | cell viability (HepG2 [3]; 1 nM) | cell viability (HepG2 [3]; 10 nM) | cell viability (HepG2 [3]; 100 nM) | cell viability (HepG2 [3]; 1000 nM) | cell viability (HepG2 [3]; 10000 nM) | cell viability (U2OS [4]; 1 nM) | cell viability (U2OS [4]; 10 nM) | cell viability (U2OS [4]; 100 nM) | cell viability (U2OS [4]; 1000 nM) | cell viability (U2OS [4]; 10000 nM) | cell viability (Vero E6 [5]; 1 nM) | cell viability (Vero E6 [5]; 10 nM) | cell viability (Vero E6 [5]; 100 nM) | cell viability (Vero E6 [5]; 1000 nM) | cell viability (Vero E6 [5]; 10000 nM) | relative viability EC50 (Caco-2 [6]) | relative viability EC50 (Calu-3 [7]) | relative viability EC50 (HepG2 [8]) | relative viability EC50 (U2OS [9]) | relative viability EC50 (Vero E6 [10]) | drug sensitivity score (Caco-2 [11]) | drug sensitivity score (Calu-3 [12]) | drug sensitivity score (HepG2 [13]) | drug sensitivity score (U2OS [14]) | drug sensitivity score (Vero E6 [15])
1 | O=C(O)CCNC(=O)c1ccccc1 [betamipron] | 90.2% | 95.6% | 99.7% | 100% | 103% | 108% | 90.6% | 113% | 104% | 116% | 94.8% | 111% | 95.9% | 114% | 105% | 102% | 98% | 101% | 92.5% | 99.4% | 94.6% | 96.4% | 95.6% | 92.2% | 96.2% | > 10 µM | > 10 µM | > 10 µM | > 10 µM | > 10 µM | 0 | 0 | 0 | 0 | 0
2 | O=C(O)CCCC[C@@H]1SC[C@@H]2NC(=O)N[C@@H]21 [biotin] | 95.8% | 96.3% | 101% | 95.1% | 89.3% | 93.8% | 105% | 98% | 102% | 97.6% | 111% | 101% | 108% | 97.4% | 104% | 99.2% | 101% | 97.7% | 101% | 97.8% | 106% | 66.8% | 105% | 59.3% | 106% | > 10 µM | > 10 µM | > 10 µM | > 10 µM | > 10 µM | 0.1 | 0 | 0 | 0 | 0
3 | C[C@H](Oc1ccc(S(C)(=O)=O)cc1C(=O)N1CCN(c2ncc(C(F)(F)F)cc2F)CC1)C(F)(F)F [bitopertin] | 100% | 98.6% | 92.5% | 94.2% | 91.1% | 97.1% | 99% | 95.8% | 97.8% | 106% | 94.7% | 95.1% | 96.2% | 104% | 98.4% | 98.9% | 100% | 101% | 95.3% | 101% | 103% | 95.6% | 96.6% | 100% | 97.5% | > 10 µM | > 10 µM | > 10 µM | > 10 µM | > 10 µM | 0 | 0 | 0 | 0 | 0
4 | Oc1c(Br)cc(Br)c2cccnc12 [broxyquinoline] | 89.4% | 92.5% | 93.2% | 98.9% | 112% | 108% | 82.2% | 90.7% | 97.6% | 99% | 84.2% | 108% | 110% | 100% | 87.6% | 96% | 98.7% | 101% | 98.2% | 94.6% | 102% | 94.1% | 102% | 110% | 99% | > 10 µM | > 10 µM | > 10 µM | > 10 µM | > 10 µM | 0 | 0 | 0 | 0 | 0
5 | CCCCOc1ccc(CC(=O)NO)cc1 [bufexamac] | 91.6% | 89.5% | 96.7% | 90.6% | 92.8% | 95.8% | 91.2% | 104% | 98.2% | 99.3% | 95% | 94.6% | 87.5% | 99.9% | 98.2% | 100% | 97.8% | 98.1% | 96% | 99% | 81.9% | 103% | 89.2% | 96.1% | 85.1% | > 10 µM | > 10 µM | > 10 µM | > 10 µM | > 10 µM | 0 | 0 | 0 | 0 | 0.1
6 | CCCCc1ccc(C(N)=O)nc1 [bupicomide] | 94.6% | 81.3% | 94% | 90.8% | 88% | 97.9% | 84.9% | 103% | 84.7% | 99.3% | 93.8% | 103% | 92.6% | 116% | 114% | 99.9% | 94.5% | 103% | 93.6% | 102% | 96.6% | 99.9% | 96% | 100% | 107% | > 10 µM | > 10 µM | > 10 µM | > 10 µM | > 10 µM | 0 | 0 | 0 | 0 | 0
7 | OC[C@H]1O[C@H](O[C@H]2O[C@H](CO)[C@@H](O)[C@H](O)[C@H]2O)[C@H](O)[C@@H](O)[C@@H]1O [cabaletta] | 112% | 112% | 83.7% | 97.7% | 94.5% | 96.2% | 105% | 97.2% | 109% | 96.3% | 130% | 110% | 115% | 110% | 98.2% | 99.1% | 103% | 104% | 107% | 106% | 110% | 94.3% | 104% | 105% | 99.5% | > 10 µM | > 10 µM | > 10 µM | > 10 µM | > 10 µM | 0 | 0 | 0 | 0 | 0
8 | CCOc1nc2cccc(C(=O)O)c2n1Cc1ccc(-c2ccccc2-c2nnn[nH]2)cc1 [candesartan] | 104% | 97.5% | 106% | 90.1% | 92.5% | 91.1% | 95.7% | 100% | 99.7% | 105% | 103% | 100% | 106% | 98% | 94.5% | 94.2% | 96.8% | 94.4% | 99.3% | 102% | 102% | 97.6% | 95.3% | 92.7% | 108% | > 10 µM | > 10 µM | > 10 µM | > 10 µM | > 10 µM | 0 | 0 | 0 | 0 | 0
9 | O=C1c2ccccc2C(=O)C1c1ccc(Cl)cc1 [chlorindione] | 94.5% | 84.3% | 104% | 95.2% | 106% | 103% | 103% | 99.5% | 106% | 99.7% | 96.8% | 108% | 106% | 111% | 122% | 99.5% | 93.8% | 105% | 97.4% | 95.4% | 95.1% | 95.2% | 90.3% | 93.6% | 108% | > 10 µM | > 10 µM | > 10 µM | > 10 µM | > 10 µM | 0 | 0 | 0 | 0 | 0
10 | C=Cc1c(C)c2cc3nc(c(CC(=O)O)c4[n-]c(cc5nc(cc1[n-]2)C(C)=C5CC)c(C)c4C(=O)O)[C@@H](CCC(=O)O)[C@@H]3C.[Cu+2] [chlorophyllin-copper] | 88.2% | 84% | 98.7% | 95.8% | 89.4% | 88.2% | 85.4% | 104% | 104% | 75.4% | 89.6% | 104% | 82.3% | 105% | 88.8% | 94.9% | 97.2% | 98.7% | 91.9% | 88.6% | 103% | 97.3% | 95.2% | 102% | 85.9% | > 10 µM | > 10 µM | > 10 µM | > 10 µM | > 10 µM | 0 | 0.7 | 0 | 0 | 0.1
11 | Oc1ccnc2cc(Cl)ccc12 [chloroxoquinoline] | 98.7% | 96.3% | 94.7% | 90.8% | 89.9% | 87.2% | 95.4% | 92.9% | 105% | 92.2% | 104% | 96.3% | 94.6% | 92.4% | 105% | 98.5% | 99.7% | 95.5% | 103% | 95.5% | 102% | 90.9% | 101% | 96.1% | 99.5% | > 10 µM | > 10 µM | > 10 µM | > 10 µM | > 10 µM | 0 | 0 | 0 | 0 | 0
12 | Cc1cc(O)cc(C)c1Cl [chloroxylenol] | 99.8% | 101% | 93.2% | 92% | 89.3% | 104% | 108% | 94.7% | 105% | 95.5% | 90.6% | 92% | 105% | 104% | 94% | 102% | 106% | 97.3% | 99.8% | 95.4% | 101% | 101% | 96.9% | 99.1% | 104% | > 10 µM | > 10 µM | > 10 µM | > 10 µM | > 10 µM | 0.3 | 0 | 0 | 0 | 0
13 | CN(C)CC[C@@H](c1ccc(Cl)cc1)c1ccccn1 [chlorphenamine] | 102 ± 3.8% | 100 ± 2.9% | 102% | 98.8 ± 3.8% | 93.05 ± 0.35% | 97.8 ± 1.2% | 95.2 ± 1.8% | 93.3 ± 3.8% | 97.7 ± 3.3% | 96.4 ± 14% | 102 ± 2% | 113.5 ± 0.71% | 96.4 ± 2.8% | 94.7 ± 2.3% | 99.2 ± 10% | 98 ± 3.7% | 97.8 ± 0.71% | 94.7 ± 1.7% | 95.2 ± 2.4% | 93 ± 2.6% | 103 ± 6.3% | 103 ± 6.7% | 99.1 ± 1.3% | 95.4 ± 3.7% | 96.8 ± 3.2% | > 10 µM | > 10 µM | > 10 µM | > 10 µM | > 10 µM | 0 | 0 | 0 | 0 | 0
